The text below walks through data of US7790717B2, “Spiro-oxazolidinone compounds and their use as metabotropic glutamate receptor potentiators” (AstraZeneca AB, priority 2006, dated 2010).

SMILES strings stand for the structures.

One may read the EC50 as the midpoint of the concentration-response curve.

In the assay the target is T1, human mGluR2 (Homo sapiens, UniProt Q14416).
T1 construct: expressed in transfected cells; host or cells: CHO cells, stably transfected; membrane preparation
T1 sequence (Q14416 19-872): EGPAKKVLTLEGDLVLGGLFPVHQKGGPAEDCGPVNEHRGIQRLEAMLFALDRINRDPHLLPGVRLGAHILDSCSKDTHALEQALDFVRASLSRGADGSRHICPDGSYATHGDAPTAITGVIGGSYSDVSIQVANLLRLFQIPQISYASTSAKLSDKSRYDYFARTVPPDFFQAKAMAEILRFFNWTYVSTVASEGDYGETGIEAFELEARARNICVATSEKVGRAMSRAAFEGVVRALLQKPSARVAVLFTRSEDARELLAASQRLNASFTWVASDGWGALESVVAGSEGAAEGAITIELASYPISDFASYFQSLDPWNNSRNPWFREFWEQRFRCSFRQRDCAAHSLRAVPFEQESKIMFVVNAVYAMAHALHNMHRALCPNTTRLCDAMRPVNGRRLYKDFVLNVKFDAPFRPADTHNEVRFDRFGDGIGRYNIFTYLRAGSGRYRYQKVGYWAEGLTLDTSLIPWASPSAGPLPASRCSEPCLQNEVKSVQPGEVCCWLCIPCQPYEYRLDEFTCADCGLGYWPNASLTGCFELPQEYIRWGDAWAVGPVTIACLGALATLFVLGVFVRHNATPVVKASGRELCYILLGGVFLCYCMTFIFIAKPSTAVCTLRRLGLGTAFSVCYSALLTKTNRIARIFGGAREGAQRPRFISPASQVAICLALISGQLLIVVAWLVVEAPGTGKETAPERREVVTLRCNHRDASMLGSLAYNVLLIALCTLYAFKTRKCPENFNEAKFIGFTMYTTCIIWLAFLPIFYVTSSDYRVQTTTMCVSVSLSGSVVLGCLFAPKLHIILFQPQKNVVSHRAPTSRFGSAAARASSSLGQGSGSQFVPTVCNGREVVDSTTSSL
Nature of the assay: [35S]-GTPγS binding assay of mGluR2 receptor activation (allosteric activator activity). The following applies: membranes from CHO cells stably expressing human mGluR2; in presence of 1 μM glutamate. Type of assay: biochemical. Here is the method:
A [^35S]-GTPγS binding assay was used to functionally assay mGluR2 receptor activation. The allosteric activator activity of compounds at the human mGluR2 receptor were measured using a [^35S]-GTPγS binding assay with membranes prepared from CHO cells which stably express the human mGluR2. The assay is based upon the principle that agonists bind to G-protein coupled receptors to stimulate GDP-GTP exchange at the G-protein. Since [^35S]-GTPγS is a non-hydrolyzable GTP analog, it can be used to provide an index of GDP-GTP exchange and, thus, receptor activation. The GTPγS binding assay therefore provides a quantitative measure of receptor activation.
Membranes were prepared from CHO cells stably transfected with human mGluR2. Membranes (30 μg protein) were incubated with test compound (3 nM to 300 μM) for 15 minutes at room temperature prior to the addition of 1 μM glutamate, and incubated for 30 min at 30° C. in 500 μL assay buffer (20 mM HEPES, 100 mM NaCl, 10 mM MgCl2), containing 30 μM GDP and 0.1 nM [^35S]-GTPγS (1250 Ci/mmol). Reactions were carried out in triplicate in 2 mL polypropylene 96-well plates. Reactions were terminated by vacuum filtration using a Packard 96-well harvester and Unifilter-96, GF/B filter microplates. The filter plates were washed 4×1.5 mL with ice-old wash buffer (10 mM sodium phosphate buffer, pH 7.4). The filter plates were dried and 35 μL of scintillation fluid (Microscint 20) was added to each well. The amount of radioactivity bound was determined by counting plates on a Packard TopCount. Data was analyzed using GraphPad Prism, and […] and Emax values (relative to the maximum glutamate effect) were calculated using non-linear regression.
With `O=C1OC2(CCCCC2)CN1Cc1ccc(-c2ccccc2)cc1` [Example 3.2, 3-Biphenyl-4-ylmethyl-1-oxa-3-aza-spiro[4.5]decan-2-one], the EC50 is 0.095 µM.

Take `O=C1OC2(CCCCC2)CN1Cc1ccc(-c2ccccc2CN2CCOCC2)cc1` [Example 1.1, 3-(2′-Morpholin-4-ylmethyl-biphenyl-4-ylmethyl)-1-oxa-3-aza-spiro[4.5]decan-2-one]: the EC50 came to 0.326 µM.

In the case of `O=C1OC2(CCC3(CC2)OCCO3)CN1Cc1ccc(-c2ccc(F)cc2)cc1` [Example 1.49, 3-(4′-Fluoro-biphenyl-4-ylmethyl)-1,9,12-trioxa-3-aza-dispiro[4.2.4.2]tetradecan-2-one], the EC50 was 0.381 µM.

For the molecule `O=C1OC2(CCCCC2)CN1Cc1ccc(-c2ccc(NCCN3CCOCC3)nc2)cc1` [Example 1.30, 3-{4-[6-(2-Morpholin-4-yl-ethylamino)-pyridin-3-yl]-benzyl}-1-oxa-3-aza-spiro[4.5] decan-2-one], the EC50 was found to be 1 µM.

Turning to `O=C1OC2(CCCCC2)CN1Cc1ccc(-c2ccc(Oc3ccccc3)cc2)cc1` [Example 1.6, 3-(4′-Phenoxy-biphenyl-4-ylmethyl)-1-oxa-3-aza-spiro[4.5]decan-2-one], the EC50 was 0.014 µM.
